Data reported in the supplement of paper PMC10307832.

How the values were obtained:
Assay in all cases: relative viability (nuclei count vs DMSO), 5 days (fraction); higher = more cells survive
Everolimus = compound: CO[C@H]1C[C@@H]2CC[C@@H](C)[C@@](O)(O2)C(=O)C(=O)N2CCCC[C@H]2C(=O)O[C@H]([C@H](C)C[C@@H]2CC[C@@H](OCCO)[C@H](OC)C2)CC(=O)[C@H](C)/C=C(\C)[C@@H](O)[C@@H](OC)C(=O)[C@H](C)C[C@H](C)/C=C/C=C/C=C/1C [Everolimus]
In short: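 Cells of lung cancer lines were placed in 1536-well plates and kept overnight at 37 °C. Pinning then delivered five library-drug doses (not always all listed), spaced by √10, onto plates anchored with vehicle, and the cells were left 5 days without changing medium. One step fixed, permeabilised and stained them with Hoechst, and MetaXpress counted nuclei in 4× images. Viability, as a median over plates, is treated-well nuclei divided by vehicle-well nuclei, with acceptance only at control CV below 25% and at least one doubling.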

Everolimus + Trametinib = compound: CO[C@H]1C[C@@H]2CC[C@@H](C)[C@@](O)(O2)C(=O)C(=O)N2CCCC[C@H]2C(=O)O[C@H]([C@H](C)C[C@@H]2CC[C@@H](OCCO)[C@H](OC)C2)CC(=O)[C@H](C)/C=C(\C)[C@@H](O)[C@@H](OC)C(=O)[C@H](C)C[C@H](C)/C=C/C=C/C=C/1C [Everolimus] + CC(=O)Nc1cccc(-n2c(=O)n(C3CC3)c(=O)c3c(Nc4ccc(I)cc4F)n(C)c(=O)c(C)c32)c1 [Trametinib] (partner 0.02 µM)
In short: (§1)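 Each reported value is a median over duplicate plates. It expresses relative viability: treated-well nuclei count divided by vehicle-well nuclei count. Lung cancer cell lines in 1536-well plates were dosed by pin tool a day after seeding, alone with one drug or with a fixed anchor-drug dose plus five library-drug doses (not always all listed) in √10 steps, and nuclei were counted after 5 days.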

Everolimus + Tozasertib = compound: CO[C@H]1C[C@@H]2CC[C@@H](C)[C@@](O)(O2)C(=O)C(=O)N2CCCC[C@H]2C(=O)O[C@H]([C@H](C)C[C@@H]2CC[C@@H](OCCO)[C@H](OC)C2)CC(=O)[C@H](C)/C=C(\C)[C@@H](O)[C@@H](OC)C(=O)[C@H](C)C[C@H](C)/C=C/C=C/C=C/1C [Everolimus] + Cc1cc(Nc2cc(N3CCN(C)CC3)nc(Sc3ccc(NC(=O)C4CC4)cc3)n2)n[nH]1 [Tozasertib] (partner 0.1 µM)
In short: as §1

Everolimus + AZD7762 = compound: CO[C@H]1C[C@@H]2CC[C@@H](C)[C@@](O)(O2)C(=O)C(=O)N2CCCC[C@H]2C(=O)O[C@H]([C@H](C)C[C@@H]2CC[C@@H](OCCO)[C@H](OC)C2)CC(=O)[C@H](C)/C=C(\C)[C@@H](O)[C@@H](OC)C(=O)[C@H](C)C[C@H](C)/C=C/C=C/C=C/1C [Everolimus] + NC(=O)Nc1cc(-c2cccc(F)c2)sc1C(=O)N[C@H]1CCCNC1 [AZD7762] (partner 0.2 µM)
In short: as §1

| Cell Line | relative viability (Everolimus; 0.01 µM) | relative viability (Everolimus; 0.03162 µM) | relative viability (Everolimus; 0.1 µM) | relative viability (Everolimus; 0.3162 µM) | relative viability (Everolimus; 1 µM) | relative viability (Everolimus + Trametinib; first compound 0.01 µM) | relative viability (Everolimus + Trametinib; first compound 0.03162 µM) | relative viability (Everolimus + Trametinib; first compound 0.1 µM) | relative viability (Everolimus + Trametinib; first compound 0.3162 µM) | relative viability (Everolimus + Trametinib; first compound 1 µM) | relative viability (Everolimus + Tozasertib; first compound 0.01 µM) | relative viability (Everolimus + Tozasertib; first compound 0.03162 µM) | relative viability (Everolimus + Tozasertib; first compound 0.1 µM) | relative viability (Everolimus + Tozasertib; first compound 0.3162 µM) | relative viability (Everolimus + Tozasertib; first compound 1 µM) | relative viability (Everolimus + AZD7762; first compound 0.01 µM) | relative viability (Everolimus + AZD7762; first compound 0.03162 µM) | relative viability (Everolimus + AZD7762; first compound 0.1 µM) | relative viability (Everolimus + AZD7762; first compound 0.3162 µM) | relative viability (Everolimus + AZD7762; first compound 1 µM) |
| --- | --- | --- | --- | --- | --- | --- | --- | --- | --- | --- | --- | --- | --- | --- | --- | --- | --- | --- | --- | --- |
| HCC-366 | 0.955 | 0.961 | 0.935 | 0.929 | 0.972 | 0.258 | 0.245 | 0.257 | 0.227 | 0.225 | 0.097 | 0.102 | 0.347 | 0.0539 | 0.0447 | 0.371 | 0.245 | 0.334 | 0.29 | 0.209 |
| NCI-H322M | 0.688 | 0.728 | 0.733 | 0.694 | 0.722 | 0.474 | 0.504 | 0.495 | 0.463 | 0.484 | 0.416 | 0.355 | 0.397 | 0.421 | 0.426 | 0.473 | 0.39 | 0.481 | 0.397 | 0.43 |
| NCI-H2347 | 0.928 | 0.95 | 0.795 | 0.887 | 0.75 | 0.266 | 0.337 | 0.244 | 0.261 | 0.286 | 0.531 | 0.519 | 0.365 | 0.506 | 0.305 | 0.651 | 0.618 | 0.576 | 0.622 | 0.439 |
| NCI-H1975 | 0.73 | 0.798 | 0.793 | 0.734 | 0.677 | 0.389 | 0.373 | 0.287 | 0.276 | 0.226 | 0.658 | 0.62 | 0.528 | 0.64 | 0.466 | 0.591 | 0.571 | 0.533 | 0.433 | 0.531 |
| NCI-H2342 | 0.569 | 0.512 | 0.531 | 0.667 | 0.641 | 0.649 | 0.54 | 0.482 | 0.468 | 0.583 | 0.557 | 0.4 | 0.435 | 0.352 | 0.407 | 0.394 | 0.331 | 0.382 | 0.376 | 0.461 |
| A-427 | 0.803 | 0.772 | 0.693 | 0.808 | 0.799 | 0.472 | 0.482 | 0.472 | 0.556 | 0.574 | 0.17 | 0.164 | 0.203 | 0.184 | 0.19 | 0.498 | 0.527 | 0.587 | 0.446 | 0.595 |
| LCLC-97TM1 | 0.771 | 0.82 | 0.709 | 0.892 | 0.775 | 0.153 | 0.164 | 0.126 | 0.155 | 0.147 | 0.189 | 0.216 | 0.181 | 0.196 | 0.171 | 0.273 | 0.145 | 0.189 | 0.221 | 0.148 |
| HCC-15 | 0.964 | 0.994 | 0.922 | 0.98 | 0.958 | 0.35 | 0.344 | 0.334 | 0.282 | 0.32 | 0.483 | 0.457 | 0.437 | 0.365 | 0.272 | 1.37 | 1.26 | 1.33 | 1.24 | 1.48 |
| NCI-H647 | 0.644 | 0.521 | 0.539 | 0.535 | 0.65 | 0.258 | 0.318 | 0.288 | 0.252 | 0.293 | 0.28 | 0.281 | 0.198 | 0.344 | 0.14 | 0.249 | 0.273 | 0.237 | 0.207 | 0.364 |
| NCI-H1651 | 0.749 | 0.71 | 0.691 | 0.663 | 0.645 | 0.774 | 0.657 | 0.605 | 0.592 | 0.538 | 0.616 | 0.542 | 0.383 | 0.485 | 0.366 | 0.197 | 0.218 | 0.224 | 0.208 | 0.231 |
| NCI-H1734 | 0.648 | 0.692 | 0.602 | 0.615 | 0.742 | 0.502 | 0.473 | 0.404 | 0.453 | 0.46 | 0.263 | 0.234 | 0.223 | 0.235 | 0.248 | 0.336 | 0.365 | 0.291 | 0.283 | 0.313 |
| NCI-H3122 | 0.987 | 0.993 | 0.831 | 0.691 | 0.852 | 0.167 | 0.147 | 0.172 | 0.141 | 0.11 | 0.417 | 0.517 | 0.421 | 0.439 | 0.363 | 0.75 | 0.765 | 0.711 | 0.629 | 0.725 |
| CAL-12T | 0.643 | 0.7 | 0.476 | 0.542 | 0.604 | 0.193 | 0.187 | 0.172 | 0.191 | 0.191 | 0.173 | 0.217 | 0.212 | 0.167 | 0.182 | 0.62 | 0.529 | 0.497 | 0.446 | 0.644 |
| HCC-78 | 0.905 | 0.919 | 0.659 | 0.858 | 0.644 | 0.637 | 0.56 | 0.493 | 0.529 | 0.47 | 0.361 | 0.428 | 0.406 | 0.426 | 0.454 | 0.455 | 0.427 | 0.361 | 0.553 | 0.384 |
| NCI-H2085 | 0.848 | 0.865 | 0.692 | 0.735 | 0.689 | 0.313 | 0.329 | 0.299 | 0.264 | 0.297 | 0.81 | 0.723 | 0.602 | 0.656 | 0.557 | 0.808 | 0.753 | 0.45 | 0.654 | 0.481 |
